Laboratory results published in patent US20240344103A1, “IN VITRO MODELS FOR ESTIMATING DRUG DOSAGE” (Hennepin Healthcare Research Institute, priority 2021, published 2024).
Entries after “also recorded” stand apart in the source; their conditions may differ. Like-named read-outs stand apart in the source and are kept apart here.

What was measured:
stool microbiota [1] = assay: In vitro anaerobic culture of patient stool microbiome with MPA or MPAG, HPLC-MS/MS of supernatant; assay type: in vitro ADME, human
Experimental: A human microbiome sample from stool was collected from a patient between days 15-45 post-transplant, during their 12-hour pharmacokinetic visit. Prior to the initiation of the culture of microbiome stool sample, in the MPA arm of the experiment, a 1 mg/mL stock solution of MPA was diluted to […] in thirteen anaerobic culture tubes by adding 0.7 mL of the stock MPA solution to 6.3 mL of YCFA (Yeast extract-Casein hydrolysate-fatty acids) medium broth. Likewise, for the MPAG arm of the experiment, a […] stock solution of MPAG was diluted to […] in thirteen anaerobic culture tubes by adding 0.7 mL of the stock MPAG solution to 6.3 mL of YCFA (Yeast extract-Casein hydrolysate-fatty acids) medium broth.
Stool aliquots of ˜0.5 g were incubated in separate YCFA tubes containing MPA or MPAG for six hours, 24 hours, or 48 hours in separate tubes, at 37° C. under anaerobic conditions (FIG. 2). All aliquots were collected at each timepoint in triplicate. Aliquots were also collected from MPA and MPAG tubes without any stool samples at zero, six hours, 24 hours, and 48 hours to serve as controls for this experiment.
After incubation, samples were […] at 16,000×g for 10 minutes, and the supernatant was collected and stored at −80° C. prior to high performance liquid chromatography-tandem mass spectrometry (HPLC-MS/MS) analysis. The supernatant was assessed for the presence and concentration of total MPA and MPAG using a validated mass spectrometry assay. Total MPA and MPAG concentration were determined based on certified analytical reference standards of […] of MPA and MPAG. These analytical reference standards were used as internal standards during the mass spectrometry assay.

stool microbiota [2] = assay: as above; assay type: in vitro ADME, human; settings: stool frozen at −80° C. for mean 312 days, thawed at 4° C. overnight, assay at 37° C.; six and 24 hours
Gut Microbiota = settings: cited from earlier work
[3] = 12-hour MPA pharmacokinetic profile in kidney transplant patients taking MMF; assay type: in vivo, human; settings: five kidney transplant participants on MMF
Experimental: The following example used a stool sample of a kidney transplant patient who was on a steady state dose of 1 gram of mycophenolate mofetil (MMF) twice a day (FIG. 1). This patient underwent intensive pharmacokinetic sampling over 12 hours to assess enterohepatic recirculation (EHR) carefully and accurately. Once participants reach a steady state dose between days 15-45 post-transplant, fourteen blood samples were obtained at the time the morning MMF does was administered and at 30 minutes, one hour, two hours, three hours, four hours, five hours, six hours, seven hours, eight hours, nine hours, ten hours, 11 hours, and 12 hours following the morning MMF dose. The sampling strategy assured capture of the secondary peak and EHR characteristics.
Five kidney transplant recipients taking MMF and tacrolimus as maintenance immunosuppression had their six-hour MPA levels assessed in the in vitro assay exposing microbiome to MPAG (FIG. 5). These patients also underwent an extensive 12-hour MPA pharmacokinetic (PK) profile (FIG. 6), and the stool samples were collected at the time of the PK profile. The percent EHR in these kidney transplant recipients was defined as [MPA AUC6-12 hour]/[AUC0-12 hour]×100 as a measure of their in vivo EHR. The correlation coefficient between the six-hour MPA level from the in vitro model with percentage EHR was 0.82 (95% CI—0.21 to 0.98, P=0.08).

[4] = effect of gut microbiome on the compound

## COc1c(C)c2c(c(O[C@@H]3O[C@H](C(=O)O)[C@@H](O)[C@H](O)[C@H]3O)c1C/C=C(\C)CCC(=O)O)C(=O)OC2 [MPAG, mycophenolic acid glucuronide]
Stool microbiota [1]; MPA arm, MPA to MPAG conversion, six, 24, 48 hours
  MPAG concentration in the MPA tubes incubated with stool microbiome samples: no detectable concentrations
Stool microbiota [1]; MPAG arm, one patient stool, anaerobic, six hours post incubation
  MPAG concentration in MPAG tubes incubated with stool microbiome samples: rapid metabolism; also recorded: rapid decrease
Stool microbiota [1]; MPAG in YCFA without stool, zero, six, 24, 48 hours
  MPAG concentration in control aliquots: remained stable
Stool microbiota [1]; stool of five kidney transplant patients, YCFA, anaerobic, first six hours
  MPAG to MPA conversion by gut microbiota: Rapid metabolism; also recorded: high MPAG to MPA conversion
Stool microbiota [2]
  MPAG to MPA conversion in repeat assay: showed ability of the stool microbiome sample to metabolism MPAG to MPA as before

## Nc1nc(F)nc2c1ncn2[C@@H]1O[C@H](COP(=O)(O)O)[C@@H](O)[C@@H]1O [Fludarabine de phosphate]
Gut Microbiota
  Gut Microbiota Modification: Improved efficacy
Gut Microbiota; [4]
  Effect of microbial modification: Activation [7]

## CC1=C(CC(=O)O)c2cc(F)ccc2/C1=C\c1ccc([S+](C)[O-])cc1 (stereo not shown) [Sulindac]
Gut Microbiota; [4]
  Effect of microbial modification: Toxicity [2, 4-6]

## COc1c(C)c2c(c(O)c1C/C=C(\C)CCC(=O)OCCN1CCOCC1)C(=O)OC2 [Mycophenolate Mofetil (MMF), mycophenolate mofetil]
Gut Microbiota; [4]
  Effect of microbial modification: Toxicity [4-6]

## C=CC[C@@H]1/C=C(\C)C[C@H](C)C[C@H](OC)[C@H]2O[C@@](O)(C(=O)C(=O)N3CCCC[C@H]3C(=O)O[C@H](/C(C)=C/[C@@H]3CC[C@@H](O)[C@H](OC)C3)[C@H](C)[C@@H](O)CC1=O)[C@H](C)C[C@@H]2OC [Tacrolimus]
Gut Microbiota; [4]
  Effect of microbial modification: Inactivation [8]

## O=C(O)Cc1ccccc1Nc1c(Cl)cccc1Cl [Diclofenac]
Gut Microbiota; [4]
  Effect of microbial modification: Toxicity [2, 3]

## Ipilimumab: Antil CTLA-4 human monoclonal antibody (Ab) therapeutic drug
Gut Microbiota
  Effect of microbial modification: Activation [2, 10]

## NC(=O)c1cc(N2CC2)c([N+](=O)[O-])cc1[N+](=O)[O-] [CB1954]
Gut Microbiota
  Gut Microbiota Modification: Improved efficacy
Gut Microbiota; [4]
  Effect of microbial modification: Activation [7]

## Nc1ccn([C@@H]2O[C@H](CO)[C@@H](O)C2(F)F)c(=O)n1 [Gemcitabine]
Gut Microbiota
  Gut Microbiota Modification: Inhibited efficacy
Gut Microbiota; [4]
  Effect of microbial modification: Inactivation[7]

## CCc1c2c(nc3ccc(OC(=O)N4CCC(N5CCCCC5)CC4)cc13)-c1cc3c(c(=O)n1C2)COC(=O)[C@]3(O)CC [Irinotecan]
Gut Microbiota; [4]
  Effect of microbial modification: Toxicity [1, 2]

## CN(C)C(=N)N=C(N)N [Metformin]
Gut Microbiota; [4]
  Effect of microbial modification: Activation [2, 11]

## COc1c(C)c2c(c(O)c1C/C=C(\C)CCC(=O)O)C(=O)OC2 [MPA, mycophenolic acid]
Stool microbiota [1]; MPA arm, one kidney transplant patient stool, YCFA, 37° C., anaerobic, six, 24 and 48 hours, controls without stool
  MPA concentration after incubation with stool bacteria compared to control samples: did not change; also recorded: no difference was detected
Stool microbiota [1]; MPAG arm, one patient stool, 24 and 48 hours
  MPA concentration relative to amount expected from full MPAG conversion: higher than the amount expected if all MPAG is converted to MPA
Stool microbiota [1]; MPAG arm, starting at six hours, upward trend at 24 and 48 hours
  MPA concentration in MPAG tubes incubated with stool microbiome samples: increase
Stool microbiota [1]; in vitro assay, MPAG substrate added
  Release of MPA bioaccumulated in microbiome cells on addition of MPAG: led to the release of MPA that had accumulated inside the cells; also recorded: promotes the release of bioaccumulated MPA
[3]
  % EHR (MPA AUC6-12 hour/AUC0-12 hour×100), mean: 46%
  % EHR (MPA AUC6-12 hour/AUC0-12 hour×100), range: 41-60%
[3]; SD ±1.66
  mean MPA trough: 3.5 mg/L
[3]; ±0.02
  mean dose normalized MPA AUC0-12: 0.07 mg·h/L

## Nc1nc(Cl)nc2c1ncn2[C@H]1C[C@H](O)[C@@H](CO)O1 [Cladribine]
Gut Microbiota
  Gut Microbiota Modification: Inhibited efficacy
Gut Microbiota; [4]
  Effect of microbial modification: Inactivation[7]
